Source: US7368115B2, “Method of enhancing neural stem cell proliferation, differentiation, and survival using pituitary adenylate cyclase activating polypeptide (PACAP)” (Stem Cell Therapeutics Inc., priority 2002, dated 2008)

What was measured:
STAT5 = STAT5 phosphorylation in cultured neural stem cells (Western blot); type: cell-based; details: data not shown
Description: (§1) To examine the possible mechanisms of PACAP action on neural stem cells, the effects of PACAP on Akt and STAT5 phosphorylation were investigated. Immunoblots were performed with anti-STAT5 (1:1000, Santa Cruz Biotechnology), anti-phospho-STAT5 (1:1000; Cell Signaling Technology), anti-Akt and anti-phospho-Akt (1:1000; Cell Signaling Technology). […] PACAP also stimulated STAT5 phosphorylation, which was previously shown to be important in neural stem cell neurogenesis. The effects of PACAP on Akt and STAT5 phosphorylation may be critical in mediating actions on neural stem cell survival and neurogenesis.

primary E14 neurospheres [1] = test: Secondary neurosphere number from dissociated primary neurospheres (self-renewal); type: cell-based, mouse; details: primary neurospheres grown with PACAP, replated in EGF or FGF+HS; normalized to growth without PACAP
Description: FIG. 2. PACAP increased neural stem cell self-renewal in vitro. Primary E14 neurospheres were grown in the indicated conditions, dissociated, and replated in the presence of either EGF or FGF+HS. Neurospheres were counted and data were normalized to either EGF or FGF+HS alone. PACAP increased the number of secondary neurospheres obtained with either EGF or FGF+HS. (* p<0.05, n=3).
Single Cell Dissociation Assay: Single neurospheres ([…]) were dissociated mechanically and then plated in a 96 well plate and incubated for 10 days in vitro in the presence of growth factors.
Primary E14 neurospheres were grown in the indicated conditions in FIG. 2, then dissociated and replated in the presence of either EGF or FGF+HS and the number of secondary neurospheres was counted. Data were normalized to the numbers of secondary neurospheres generated from primary neurospheres grown in the absence of PACAP.

[2] = Banks, 1993; cited from earlier work
Akt = Akt phosphorylation in cultured neural stem cells (Western blot); type: cell-based; details: within 1 to 2 hours, data not shown
Description: as §1

primary E14 neurospheres [3] = test: In vitro neurogenesis: count of β-tubulin immunopositive neurons from neurospheres; type: cell-based, mouse
Description: FIG. 3. PACAP enhanced in vitro neurogenesis by neural stem cells. Primary E14 neurospheres were grown in the indicated conditions for seven days and then processed for immunocytochemistry to count the number of B-tubulin immunopositive neurons. Data were normalized to either EGF or FGF+HS alone (100%). PACAP increased the number of neurons in all conditions. (* p<0.01, n=3).
Differentiation of Neurospheres: Neurospheres were plated onto poly-L-ornithine coated coverslips in serum-free medium and subjected to immunocytochemistry after 5 days in vitro. The number of β-III tubulin-positive cells were counted.
Primary E14 neurospheres were grown in either EGF or FGF media in the presence or absence of PACAP for seven days, differentiated for five days in vitro in basal media, and then processed for immunocytochemistry to determine the number of β-tubulin immunopositive neurons. Data were normalized to those obtained with either EGF or FGF+HS alone (100%).

[4] = tested on: adult forebrain subventricular zone (SVZ); test: In vivo proliferation in the adult subventricular zone (BrdU+ cells) after infusion into the lateral ventricle; design: species or system CD-1 mice; details: human PACAP 165 μg/ml by osmotic minipump into right lateral ventricle for 6 days; relative to vehicle infused animals
Excerpt: FIG. 4. PACAP infusion stimulated increased proliferation in the adult subventricular zone (SVZ) in vivo. PACAP was infused into the lateral ventricles for six days with an osmotic minipump, followed by a series of BrdU injections. Brains were processed for immunocytochemistry. PACAP increased proliferation in the adult SVZ. (** p<0.05, n=4). […] To examine the actions of the peptide in vivo, CD-1 mice (6–7 weeks of age) were implanted with osmotic minipumps (Alzet 1007D) filled with either human PACAP (American Peptide Company, 165 μg/ml) or vehicle alone (0.9% saline containing 1 mg/ml mouse serum albumin). The cannulae were placed in the right lateral ventricle. Each animal was infused for 6 days and injected with BrdU every two hours for ten hours and killed 0.5 hours after the last injection. Brains were processed for immunohistochemistry as described previously (Shingo et al., 2001) and BrdU+cells were counted in serial sections of the SVZ.

[5] = tested on: E14 ganglionic eminence neural stem cells; test: Primary neurosphere number from dissociated E14 ganglionic eminences (neural stem cell survival); type: cell-based, mouse
Excerpt: FIG. 1. Pituitary adenylate cyclase-activating polypeptide (PACAP) enhanced neural stem cell survival in vitro. Embryonic day 14 ganglionic eminences (E14 GE) were dissociated and plated at 150 cells/ml in the indicated growth factor conditions. The number of neurospheres was counted after 10 days. Data are expressed relative to the number obtained with epidermal growth factor (EGF) alone (100%). PACAP increased the number of neurospheres obtained with either EGF or fibroblast growth factor (FGF)+heparan sulfate (HS). […] (* p<0.05, n=3).
Cell Culture: Primary embryonic neural stem cells were isolated from E14 ganglionic eminence as previously described (Reynolds and Weiss, 1992). Neurospheres were grown in the presence of EGF (20 ng/ml) or FGF-2 (20 ng/ml)+heparan sulfate (2 μg/ml) growth medium. Passaged neural stem cells were grown at a clonal density (150 cells/ml).
E14 GE were dissociated and plated at 150 cells/ml in EGF, EGF+PACAP, FGF+HS, or FGF+HS+PACAP. The number of neurospheres were counted after 10 days.

[6] = tested on: embryonic rat cortical precursors; details: Lu and DiCicco-Bloom, 1997; cited from earlier work

## PACAP: polypeptide hormone that activates adenylate cyclase; native mammalian form is 38 or 27 amino acids; human PACAP from American Peptide Company used in vivo
STAT5
  STAT5 phosphorylation: stimulated
Primary E14 neurospheres [1]
  number of secondary neurospheres generated by single primary neurospheres: significantly increased
[2]
  crossing of the blood-brain-barrier: known to cross the blood-brain-barrier
Akt
  phosphorylation of Akt: rapid increase
Primary E14 neurospheres [3]; EGF or FGF media with PACAP for seven days, differentiated five days in vitro, normalized to EGF or FGF+HS alone (100%)
  number of β-tubulin immunopositive neurons generated: significantly increased
Primary E14 neurospheres [3]; PACAP addition delayed until after five days in vitro (PACAP at 5 DIV)
  number of neurons generated with delayed PACAP addition: an increase was observed
[4]
  number of BrdU incorporating cells in the SVZ: significantly increased
[5]; EGF+PACAP vs EGF, 150 cells/ml, counted after 10 days, lesser extent than with FGF-2
  number of primary neurospheres generated in response to EGF: also increased
[5]; FGF+HS+PACAP vs FGF+HS, 150 cells/ml, counted after 10 days, PACAP added at beginning of culture
  number of primary neurospheres generated in response to FGF-2: significantly increased
[5]; PACAP addition delayed until 5 days in vitro
  neurosphere number with delayed addition of PACAP: did not increase
[6]
  mitosis: can decrease mitosis
